What was measured:
[1] = system: synchronized cells; assay: Double-thymidine cell cycle synchronization assay (flow cytometry); assay type: cell-based; details: for Percentage of G2/M cells compared with control group, in words: 9 hours of treatment after release
Text: ATR are involved in DNA replication. […] In the results of double-thymidine cell cycle synchronization assay, according to the Table 4 which sorted out from FIGS. 21-23, the unsynchronized cells (FIG. 21(a)) become synchronization by using this method, and 97% of cells were stopped at G1/S boundary after two cycles of thymidine blocks (FIG. 21(b)). Those synchronized cells released from thymidine blockade and allowed progress into S phase in presence or absence of protoapigenone (I-1) and compound II-1.
To evaluate the effect of DNA damage checkpoint activation on cell cycle distribution, the cells were harvested at indicated time points and fixed with methanol for at least 2 h. The DNA was then stained with a solution containing propidium iodide (PI) and RNase A (Sigma-Aldrich). Fluorescently labeled cells were subsequently analyzed by the flow cytometer (LSR II; BD Biosciences) with a suitable selection of excitation and emission wavelengths. The percentages of different fluorescent cell populations were analyzed using WinMDI Ver. 2.9 (The Scripps Research Institute).

[2] = system: A549 cells, MDA-MB-231 cells; assay: Cancer cell growth at low doses (FIGS. 19, 20); assay type: cell-based, human; details: low doses (I-1 0.25-1 μM, II-1 0.1-0.4 μM)
[3] = system: MDA-MB-231 cells; assay: Mitotic entry assay (phospho-histone H3 Ser10, nocodazole trap, flow cytometry); assay type: cell-based, human
Text: Of these, the G2/M checkpoint involves ATM and ATR in collaboration, whereas the S/M checkpoint is mediated solely by ATR. To maintain genetic integrity, ATR can prevent premature mitotic entry in the event of incomplete DNA replication or unrepaired DNA damage. In order to evaluate the effect of benzopyran-4-one derivatives on these ATR-associated DNA damage checkpoints, we observed the effect of benzopyran-4-one derivatives on mitotic entry following hydroxyurea or cisplatin treatment.
(§1) DNA replication was measured using a Click-it EdU assay kit, which is based on incorporation of the thymidine analogue 5-ethynyl-2′-deoxyuridine (EdU) into DNA during replication (Invitrogen). Then, 10 μM EdU was added to the cell culture medium 30 min before the cells were harvested and fixed in 4% paraformaldehyde. After cycloaddition, EdU was detected with Alexa Fluor 647 using click reaction catalyzed by Cu (II), and the DNA content was stained by CellCycle 405-blue. To assay the mitotic entry, cells were treated with the indicated drugs and trapped in 70 nM nocodazole for 16 h, and antibodies against phospho-histone H3 Ser10 and PI were used to stain the mitotic cells and DNA content, respectively. An FITC Annexin V apoptosis detection kit was used to characterize the phenotype of cell death based on PI and Annexin V double staining (BD Pharmingen, San Diego, Calif.). Fluorescence-labeled cells were subsequently analyzed by the BD LSR II flow cytometer with a suitable selection of excitation and emission wavelengths. The percentages of different fluorescent cells were analyzed using WinMDI Ver. 2.9.

[4] = system: DNA replication; assay: EdU incorporation assay of DNA replication; assay type: cell-based
Experimental: as §1, with “5-ethynyl-2'-deoxyuridine” for “5-ethynyl-2′-deoxyuridine”, “To assay the mitotic entry, cells were treated with the indicated drugs and trapped in 70 nM nocodazole for 16 h, and antibodies against phospho-histone H3 Ser10 and PI were used to stain the mitotic cells and DNA content, respectively.” left out

[5] = system: ATM-mediated Chk2 phosphorylation; assay: Immunoblot of DNA damage-induced Chk2 phosphorylation / ATM autophosphorylation; assay type: cell-based, human; details: for UV-induced or H2O2-induced Chk2 phosphorylation: HEK293T cells with siRNAs against ATM and DNA-PKcs
Text: We hypothesized that genes with functions associated with DNA damage checkpoints and/or DNA repair might be targeted by benzopyran-4-one derivatives. To test this hypothesis, we assessed the effects of benzopyran-4-one derivatives on DDR induced by H2O2. […] In response to DNA double-strand breaks (DSBs), FANCD2 is known to be monoubiquitinated on K561 (FANCD2-Ub) in an ATR-dependent manner to stimulate repair (Andreassen P R, et al. Genes Dev 2004).
To elucidate the specificity of the benzopyran-4-one derivatives inhibition on ATR-mediated signaling, we compared the change between cells treated with benzopyran-4-one derivatives or the ATM-specific inhibitor KU55933 before the induction of DDR.
MDA-MB-231 (breast adenocarcinoma; ATCC HTB-26, BCRC 60425) and A549 (lung adenocarcinoma; ATCC CCL-185, BCRC 60074) human cell lines were purchased from Bioresource Collection and Research Center (BCRC, Hsinchu, Taiwan), and were authenticated by American Type Culture Collection (ATCC, Manassas, Va.). U2OS (osteosarcoma), HeLa (cervical adenocarcinoma), and HEK 293T (embryonic kidney cells) human cell lines were provided by Dr. Sheau-Yann Shieh (Institute of Molecular Biology, Academia Sinica, Taipei, Taiwan). Cells were maintained in Dulbecco's modified Eagle's medium (DMEM, Sigma-Aldrich) supplemented with 10% fetal bovine serum (FBS) (Gibco). […] For UV irradiation treatment, the cells were irradiated for 10 J/m^2 by a cross-linker (UVP) 1 h prior to analysis.
Cell lysate preparations, gel electrophoresis, and immunoblotting were performed as previously described (23). The binding of primary antibodies were detected by horseradish peroxidase-coupled secondary antibodies (Jackson ImmunoResearch) followed by enhanced chemiluminescence (ECL) (Millipore). The images of non-saturated bands were captured using a luminescent image analyzer (LAS-4000 mini; Fujifilm). The antibodies used in this study are listed in supplementary materials.

[6] = 6 hrs after release from synchronization
[7] = 9 hrs after release from synchronization
[8] = compound alone (Control group, no DNA-damaging agent)
[9] = compound with Cisplatin (G2/M checkpoint)
[10] = compound with Hydroxyurea (S/M checkpoint)
[11] = A594 cells, 0.1 mM H2O2 for 2 h

SMILES | Cell cycle G1 [1, 6] [%] | Cell cycle G2M [1, 6] [%] | Cell cycle S [1, 6] [%] | Percentage of G2/M cells compared with control group, in words [1] | Cell cycle G1 [1, 7] [%] | Cell cycle G2M [1, 7] [%] | Cell cycle S [1, 7] [%] | Cancer growth [2] | The percentage of mitotic cells [3, 8] [%] | The percentage of mitotic cells [3, 9] [%] | The percentage of mitotic cells [3, 10] [%] | Percentage of EdU incorporation compared with control group ([4]; 0.4 μM) | UV-induced or H2O2-induced Chk2 phosphorylation [5] | Percentage of EdU incorporation compared with control group ([4]; 4 μM) | ATM autophosphorylation [5, 11] | Chk2 phosphorylation [5, 11]
O=C1C=CC(O)(c2cc(=O)c3c(ccc4ccccc43)o2)C=C1 [Compound II-1, 3-(1-hydroxy-4-oxo-cyclohexa-2,5-dienyl)-1H-benzo[f]chromen-1-one] | 21.72 | 4.59 | 72.01 | significantly reduce | 15.50 | 20.45 | 63.06 | significantly slowed cancer growth in a dose-dependent manner | 12.05 ± 0.68 | 8.14 ± 0.99 | 10.49 ± 1.17 | efficiently reduce | increased |  |  | 
O=C1C=CC(O)(c2cc(=O)c3c(O)cc(O)cc3o2)C=C1 [Compound I-1, Protoapigenone] | 25.45 | 0.41 | 69.13 | significantly reduce | 21.41 | 16.46 | 60.89 | significantly slowed cancer growth in a dose-dependent manner | 23.69 ± 0.94 | 7.99 ± 0.91 | 3.40 ± 0.41 |  | not altered | efficiently reduce | not affected | promote

Source: patent US11413267B2, “Methods and compositions for inhibition of ATR and FANCD2 activation” (priority 2012, dated 2022)
